# In PMC10689823, “Discovery of a Drug-like, Natural Product-Inspired DCAF11 Ligand Chemotype” (Nature Communications, 2023):
# Biological target: BRD4S-TagBFP reporter (Homo sapiens, UniProt O60885)
# Assay: FACS-based CRISPR/Cas9 BRD4 protein stability screen
# Conditions: Mageck_Gene level
smiles,measurement,setting,value
Cc1sc2c(c1C)C(c1ccc(Cl)cc1)=NC(CC(=O)NCCOCCOCCOCCOc1c(Br)cc(C=C3C(=O)Nc4ccc(Br)cc43)cc1Br)c1nnc(C)n1-2 (centres unmarked) [Compound 10],High_lfc,Gene DCAF1,0.07
same,High_logP,Gene DCAF1,0.4
same,Low_lfc,Gene DCAF1,0.08
same,Low_logP,Gene DCAF1,0.47
same,High_lfc,Gene DCAF4,0.04
same,High_logP,Gene DCAF4,0.26
same,Low_lfc,Gene DCAF4,0.5
same,Low_logP,Gene DCAF4,1.14
same,High_lfc,Gene DCAF5,-0.31
same,High_logP,Gene DCAF5,0.03
same,Low_lfc,Gene DCAF5,-0.2
same,Low_logP,Gene DCAF5,0.09
same,High_lfc,Gene DCAF6,-0.27
same,High_logP,Gene DCAF6,0.06
same,Low_lfc,Gene DCAF6,0.14
same,Low_logP,Gene DCAF6,0.62
same,High_lfc,Gene DCAF7,-0.06
same,High_logP,Gene DCAF7,0.19
same,Low_lfc,Gene DCAF7,0.05
same,Low_logP,Gene DCAF7,0.29
same,High_lfc,Gene DCAF8,-0.08
same,High_logP,Gene DCAF8,0.19
same,Low_lfc,Gene DCAF8,0.22
same,Low_logP,Gene DCAF8,0.46
same,High_lfc,Gene DCAF12,-0.19
same,High_logP,Gene DCAF12,0
same,Low_lfc,Gene DCAF12,-0.38
same,Low_logP,Gene DCAF12,0
same,High_lfc,Gene DCAF13,-0.32
same,High_logP,Gene DCAF13,0.14
same,Low_lfc,Gene DCAF13,-0.17
same,Low_logP,Gene DCAF13,0.23
same,High_lfc,Gene DCAF15,0.02
same,High_logP,Gene DCAF15,0.29
same,Low_lfc,Gene DCAF15,0.34
same,High_lfc,Gene DCAF16,0.41
same,High_logP,Gene DCAF16,1.29
same,Low_lfc,Gene DCAF16,0.15
same,Low_logP,Gene DCAF16,0.08
same,High_lfc,Gene DCAF17,-0.4
same,High_logP,Gene DCAF17,0.08
same,Low_lfc,Gene DCAF17,-0.25
same,Low_logP,Gene DCAF17,0.08
same,High_lfc,Gene DCUN1D1,-0.16
same,High_logP,Gene DCUN1D1,0.04
same,Low_lfc,Gene DCUN1D1,-0.14
same,Low_logP,Gene DCUN1D1,0.41
same,High_lfc,Gene DCUN1D2,-0.24
same,High_logP,Gene DCUN1D2,0.01
same,Low_lfc,Gene DCUN1D2,0.34
same,Low_logP,Gene DCUN1D2,0.85
same,High_lfc,Gene DCUN1D3,0.11
same,High_logP,Gene DCUN1D3,0.22
same,Low_lfc,Gene DCUN1D3,0.24
same,Low_logP,Gene DCUN1D3,1.2
same,High_lfc,Gene DCUN1D4,-0.01
same,High_logP,Gene DCUN1D4,0.07
same,Low_lfc,Gene DCUN1D4,0.03
same,Low_logP,Gene DCUN1D4,0.28
same,High_lfc,Gene DCUN1D5,0.22
same,High_logP,Gene DCUN1D5,0.38
same,Low_lfc,Gene DCUN1D5,-0.23
same,Low_logP,Gene DCUN1D5,0.04
same,High_lfc,Gene DDA1,0.21
same,High_logP,Gene DDA1,0.55
same,Low_lfc,Gene DDA1,-0.07
same,Low_logP,Gene DDA1,0.09
same,High_lfc,Gene DDB1,1.6
same,Low_lfc,Gene DDB1,-0.07
same,Low_logP,Gene DDB1,0.14
same,High_lfc,Gene DDB2,-0.17
same,High_logP,Gene DDB2,0.1
same,Low_lfc,Gene DDB2,0.02
same,Low_logP,Gene DDB2,0.41
same,High_lfc,Gene DET1,0.13
same,High_logP,Gene DET1,0.2
same,Low_lfc,Gene DET1,0.1
same,Low_logP,Gene DET1,0.55
same,High_lfc,Gene DHX15,0.88
same,High_logP,Gene DHX15,3.08
same,Low_lfc,Gene DHX15,0.33
same,Low_logP,Gene DHX15,0.15
same,High_lfc,Gene DTL,-0.32
same,High_logP,Gene DTL,0.12
same,Low_lfc,Gene DTL,0.6
same,Low_logP,Gene DTL,1.9
same,High_lfc,Gene ECT2L,0.08
same,High_logP,Gene ECT2L,0.35
same,Low_lfc,Gene ECT2L,0.18
same,Low_logP,Gene ECT2L,0.73
same,High_lfc,Gene EED,-0.14
same,High_logP,Gene EED,0.1
same,Low_lfc,Gene EED,-0.33
same,Low_logP,Gene EED,0.06
same,High_lfc,Gene EIF4A1,-0.23
same,High_logP,Gene EIF4A1,0.17
same,Low_lfc,Gene EIF4A1,0.22
same,Low_logP,Gene EIF4A1,0.27
same,High_lfc,Gene EIF4A3,-0.5
same,High_logP,Gene EIF4A3,0.12
same,Low_lfc,Gene EIF4A3,0.83
same,Low_logP,Gene EIF4A3,3.36
same,High_lfc,Gene ELOA2,0.27
same,High_logP,Gene ELOA2,1.5
same,Low_lfc,Gene ELOA2,-0.21
same,Low_logP,Gene ELOA2,0.02
same,High_lfc,Gene ELOA3,-0.14
same,High_logP,Gene ELOA3,0.04
same,Low_lfc,Gene ELOA3,-0.68
same,Low_logP,Gene ELOA3,0
same,High_lfc,Gene ELOA3D,-0.17
same,High_logP,Gene ELOA3D,0.16
same,Low_lfc,Gene ELOA3D,-0.44
same,Low_logP,Gene ELOA3D,0.05
same,High_lfc,Gene ELOA,0.14
same,High_logP,Gene ELOA,0.38
same,Low_lfc,Gene ELOA,0.01
same,Low_logP,Gene ELOA,0.08
same,High_lfc,Gene ELOB,0.32
same,High_logP,Gene ELOB,1.07
same,Low_lfc,Gene ELOB,0.26
same,Low_logP,Gene ELOB,0.54
same,High_lfc,Gene ELOC,0.2
same,High_logP,Gene ELOC,0.44
same,Low_lfc,Gene ELOC,0.2
same,Low_logP,Gene ELOC,0.9
same,High_lfc,Gene ENC1,-0.31
same,High_logP,Gene ENC1,0
same,Low_lfc,Gene ENC1,-0.06
same,Low_logP,Gene ENC1,0.22
same,High_lfc,Gene EPHA4,-0.08
same,High_logP,Gene EPHA4,0.25
same,Low_lfc,Gene EPHA4,-0.27
same,Low_logP,Gene EPHA4,0.02
same,High_lfc,Gene ERCC8,-0.71
same,High_logP,Gene ERCC8,0.04
same,Low_lfc,Gene ERCC8,-0.42
same,Low_logP,Gene ERCC8,0.02
same,High_lfc,Gene ESCO1,0.09
same,High_logP,Gene ESCO1,0.53
same,Low_lfc,Gene ESCO1,-0.29
same,Low_logP,Gene ESCO1,0.05
same,High_lfc,Gene FAM9A,-0.13
same,High_logP,Gene FAM9A,0.02
same,Low_lfc,Gene FAM9A,-0.08
same,Low_logP,Gene FAM9A,0.64
same,High_lfc,Gene FBXL2,-0.04
same,High_logP,Gene FBXL2,0.25
same,Low_lfc,Gene FBXL2,-0.25
same,Low_logP,Gene FBXL2,0.03
same,High_lfc,Gene FBXL3,-0.55
same,High_logP,Gene FBXL3,0
same,Low_lfc,Gene FBXL3,0
same,Low_logP,Gene FBXL3,0.15
same,High_lfc,Gene FBXL4,-0.13
same,High_logP,Gene FBXL4,0.04
same,Low_lfc,Gene FBXL4,0.11
same,Low_logP,Gene FBXL4,0.32
same,High_lfc,Gene FBXL5,-0.03
same,High_logP,Gene FBXL5,0.1
same,Low_lfc,Gene FBXL5,-0.22
same,Low_logP,Gene FBXL5,0.05
same,High_lfc,Gene FBXL6,-0.15
same,High_logP,Gene FBXL6,0.09
same,Low_lfc,Gene FBXL6,-0.18
same,Low_logP,Gene FBXL6,0.14
same,High_lfc,Gene FBXL7,-0.1
same,High_logP,Gene FBXL7,0.12
same,Low_lfc,Gene FBXL7,0.04
same,Low_logP,Gene FBXL7,0.13
same,High_lfc,Gene FBXL8,-0.02
same,High_logP,Gene FBXL8,0.08
same,Low_lfc,Gene FBXL8,-0.1
same,Low_logP,Gene FBXL8,0.23
same,High_lfc,Gene FBXL12,-0.02
same,High_logP,Gene FBXL12,0.03
same,Low_lfc,Gene FBXL12,0.09
same,Low_logP,Gene FBXL12,0.2
same,High_lfc,Gene FBXL13,0.02
same,High_logP,Gene FBXL13,0.26
same,Low_lfc,Gene FBXL13,0.01
same,Low_logP,Gene FBXL13,0.21
same,High_lfc,Gene FBXL14,-0.22
same,High_logP,Gene FBXL14,0.01
same,Low_lfc,Gene FBXL14,-0.05
same,Low_logP,Gene FBXL14,0.13
same,High_lfc,Gene FBXL15,0.13
same,High_logP,Gene FBXL15,0.24
same,Low_lfc,Gene FBXL15,0.16
same,Low_logP,Gene FBXL15,0.21
same,High_lfc,Gene FBXL16,0.23
same,High_logP,Gene FBXL16,0.22
same,Low_lfc,Gene FBXL16,0.16
same,Low_logP,Gene FBXL16,0.37
same,High_lfc,Gene FBXL17,-0.14
same,High_logP,Gene FBXL17,0.03
same,Low_lfc,Gene FBXL17,-0.04
same,Low_logP,Gene FBXL17,0.45
same,High_lfc,Gene FBXL18,0.05
same,High_logP,Gene FBXL18,0.34
